For experiment [1], the target named is Serine/threonine-protein kinase MRCK alpha (Homo sapiens) (UniProt Q5VT25). As to the kind of experiment: Selectivity interaction (KinomeScan (DiscoverX)) EUB0000666a CDC42BPA. Particulars: at 10 µM.
Experiment [2] concerns the target T1, Serine/threonine-protein kinase LATS1 (Homo sapiens) (UniProt O95835).
T1 sequence (whole entry): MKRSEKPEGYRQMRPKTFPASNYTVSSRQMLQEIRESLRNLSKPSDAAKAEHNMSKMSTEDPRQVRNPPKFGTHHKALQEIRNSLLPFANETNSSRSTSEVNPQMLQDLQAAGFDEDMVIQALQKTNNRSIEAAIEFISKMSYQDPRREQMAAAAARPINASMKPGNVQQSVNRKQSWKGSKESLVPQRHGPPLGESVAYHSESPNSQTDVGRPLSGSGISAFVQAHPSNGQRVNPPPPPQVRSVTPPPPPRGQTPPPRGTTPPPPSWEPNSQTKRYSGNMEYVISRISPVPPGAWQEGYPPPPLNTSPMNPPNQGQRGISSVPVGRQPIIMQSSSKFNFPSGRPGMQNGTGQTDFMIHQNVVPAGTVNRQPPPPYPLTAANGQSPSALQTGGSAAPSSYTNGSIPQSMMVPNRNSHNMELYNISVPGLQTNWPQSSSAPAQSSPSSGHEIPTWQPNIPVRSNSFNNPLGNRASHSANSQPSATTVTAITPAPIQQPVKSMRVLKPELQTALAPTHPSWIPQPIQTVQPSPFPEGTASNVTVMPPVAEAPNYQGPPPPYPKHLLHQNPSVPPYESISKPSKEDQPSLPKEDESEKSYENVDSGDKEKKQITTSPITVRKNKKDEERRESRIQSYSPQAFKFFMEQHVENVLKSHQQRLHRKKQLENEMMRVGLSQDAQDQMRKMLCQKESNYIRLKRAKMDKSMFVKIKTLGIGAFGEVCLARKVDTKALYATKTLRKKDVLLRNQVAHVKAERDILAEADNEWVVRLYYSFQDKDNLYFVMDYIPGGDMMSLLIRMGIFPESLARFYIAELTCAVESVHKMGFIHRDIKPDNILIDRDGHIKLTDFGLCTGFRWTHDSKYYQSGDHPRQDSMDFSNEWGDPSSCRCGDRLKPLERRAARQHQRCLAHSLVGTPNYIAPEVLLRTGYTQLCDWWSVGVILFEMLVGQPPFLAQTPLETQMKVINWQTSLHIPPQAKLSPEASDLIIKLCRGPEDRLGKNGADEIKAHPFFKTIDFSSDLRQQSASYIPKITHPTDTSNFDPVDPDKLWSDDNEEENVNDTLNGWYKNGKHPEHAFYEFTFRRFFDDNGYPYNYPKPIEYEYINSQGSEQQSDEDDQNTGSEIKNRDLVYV
To be noted: at 10 µM.

Another experiment deals with Focal adhesion kinase 1 (Homo sapiens, UniProt Q05397). As to the kind of experiment: Selectivity interaction (ActivX KiNativ screen (kinase selectivity in THP-1 cell lysates)) EUB0000639a PTK2. The format is subcellular. Particulars: lysate, at 0.2 µM.
Focal adhesion kinase 1, sequence (Q05397 2-1052 limits assumed): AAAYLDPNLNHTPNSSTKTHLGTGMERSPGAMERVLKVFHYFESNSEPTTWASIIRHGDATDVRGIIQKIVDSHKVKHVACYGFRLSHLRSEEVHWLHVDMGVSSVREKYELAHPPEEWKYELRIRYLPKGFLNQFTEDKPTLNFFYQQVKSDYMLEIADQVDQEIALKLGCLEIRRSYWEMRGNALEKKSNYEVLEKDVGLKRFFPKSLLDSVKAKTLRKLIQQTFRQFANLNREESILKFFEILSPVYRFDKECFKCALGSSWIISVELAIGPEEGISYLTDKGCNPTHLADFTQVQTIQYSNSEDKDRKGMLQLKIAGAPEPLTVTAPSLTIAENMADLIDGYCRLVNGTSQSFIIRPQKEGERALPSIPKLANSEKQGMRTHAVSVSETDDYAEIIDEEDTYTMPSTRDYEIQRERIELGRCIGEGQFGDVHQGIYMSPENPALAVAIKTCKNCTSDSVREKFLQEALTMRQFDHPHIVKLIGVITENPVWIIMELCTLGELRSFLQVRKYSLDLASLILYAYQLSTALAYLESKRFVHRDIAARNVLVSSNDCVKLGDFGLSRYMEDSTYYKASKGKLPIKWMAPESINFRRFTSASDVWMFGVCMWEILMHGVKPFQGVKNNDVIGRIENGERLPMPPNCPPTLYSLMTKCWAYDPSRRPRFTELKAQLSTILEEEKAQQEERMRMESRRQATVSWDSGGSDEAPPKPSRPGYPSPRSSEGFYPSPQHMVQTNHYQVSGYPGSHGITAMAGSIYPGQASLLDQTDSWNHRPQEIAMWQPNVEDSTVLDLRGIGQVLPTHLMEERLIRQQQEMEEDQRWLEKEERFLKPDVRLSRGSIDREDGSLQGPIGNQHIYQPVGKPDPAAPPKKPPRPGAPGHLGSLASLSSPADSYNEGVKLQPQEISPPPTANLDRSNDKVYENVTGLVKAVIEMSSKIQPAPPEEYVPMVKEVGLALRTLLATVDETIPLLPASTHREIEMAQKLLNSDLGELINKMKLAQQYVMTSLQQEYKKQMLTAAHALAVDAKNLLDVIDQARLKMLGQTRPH
In experiment [3] the target is T2, Mitogen-activated protein kinase kinase kinase 15 (Homo sapiens) (UniProt Q6ZN16).
T2 sequence (whole entry): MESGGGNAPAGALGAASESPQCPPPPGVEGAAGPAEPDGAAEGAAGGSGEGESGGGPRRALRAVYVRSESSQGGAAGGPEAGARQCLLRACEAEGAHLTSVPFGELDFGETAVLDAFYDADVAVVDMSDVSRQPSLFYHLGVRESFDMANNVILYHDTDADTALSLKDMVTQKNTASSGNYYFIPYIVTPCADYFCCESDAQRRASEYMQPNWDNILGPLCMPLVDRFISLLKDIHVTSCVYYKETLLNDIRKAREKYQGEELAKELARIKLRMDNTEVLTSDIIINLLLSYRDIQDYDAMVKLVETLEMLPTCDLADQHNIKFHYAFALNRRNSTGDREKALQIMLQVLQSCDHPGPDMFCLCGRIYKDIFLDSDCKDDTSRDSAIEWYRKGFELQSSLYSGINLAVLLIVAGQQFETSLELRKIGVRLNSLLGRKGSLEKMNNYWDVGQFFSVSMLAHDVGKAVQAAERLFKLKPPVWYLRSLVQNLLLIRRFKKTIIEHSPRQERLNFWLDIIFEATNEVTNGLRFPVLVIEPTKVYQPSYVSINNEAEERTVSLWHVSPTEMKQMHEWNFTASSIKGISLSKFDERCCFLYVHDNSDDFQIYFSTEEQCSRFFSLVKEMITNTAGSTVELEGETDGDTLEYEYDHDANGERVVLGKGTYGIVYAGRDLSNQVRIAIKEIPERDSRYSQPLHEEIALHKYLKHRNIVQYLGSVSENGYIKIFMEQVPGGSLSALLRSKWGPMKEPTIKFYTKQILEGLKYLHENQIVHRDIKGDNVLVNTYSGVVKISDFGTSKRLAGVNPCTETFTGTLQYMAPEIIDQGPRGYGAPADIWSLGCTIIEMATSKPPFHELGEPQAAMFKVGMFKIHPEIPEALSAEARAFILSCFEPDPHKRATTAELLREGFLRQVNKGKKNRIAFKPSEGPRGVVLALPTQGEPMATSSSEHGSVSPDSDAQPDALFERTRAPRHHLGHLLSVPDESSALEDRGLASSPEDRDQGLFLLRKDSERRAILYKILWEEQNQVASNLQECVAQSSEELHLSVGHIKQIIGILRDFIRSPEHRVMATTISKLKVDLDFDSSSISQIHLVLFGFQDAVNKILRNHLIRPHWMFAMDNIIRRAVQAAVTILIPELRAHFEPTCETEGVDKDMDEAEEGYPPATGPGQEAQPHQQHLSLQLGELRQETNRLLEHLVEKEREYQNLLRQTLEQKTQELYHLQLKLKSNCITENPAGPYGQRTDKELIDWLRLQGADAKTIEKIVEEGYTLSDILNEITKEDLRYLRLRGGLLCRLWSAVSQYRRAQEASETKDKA
The experiment can be described thus: Selectivity interaction (KinomeScan (DiscoverX)) EUB0000655a MAP3K15. To be noted: at 10 µM.

Molecules are shown by their SMILES.

Serine/threonine-protein kinase MRCK alpha (Homo sapiens), sequence (Q5VT25 whole entry): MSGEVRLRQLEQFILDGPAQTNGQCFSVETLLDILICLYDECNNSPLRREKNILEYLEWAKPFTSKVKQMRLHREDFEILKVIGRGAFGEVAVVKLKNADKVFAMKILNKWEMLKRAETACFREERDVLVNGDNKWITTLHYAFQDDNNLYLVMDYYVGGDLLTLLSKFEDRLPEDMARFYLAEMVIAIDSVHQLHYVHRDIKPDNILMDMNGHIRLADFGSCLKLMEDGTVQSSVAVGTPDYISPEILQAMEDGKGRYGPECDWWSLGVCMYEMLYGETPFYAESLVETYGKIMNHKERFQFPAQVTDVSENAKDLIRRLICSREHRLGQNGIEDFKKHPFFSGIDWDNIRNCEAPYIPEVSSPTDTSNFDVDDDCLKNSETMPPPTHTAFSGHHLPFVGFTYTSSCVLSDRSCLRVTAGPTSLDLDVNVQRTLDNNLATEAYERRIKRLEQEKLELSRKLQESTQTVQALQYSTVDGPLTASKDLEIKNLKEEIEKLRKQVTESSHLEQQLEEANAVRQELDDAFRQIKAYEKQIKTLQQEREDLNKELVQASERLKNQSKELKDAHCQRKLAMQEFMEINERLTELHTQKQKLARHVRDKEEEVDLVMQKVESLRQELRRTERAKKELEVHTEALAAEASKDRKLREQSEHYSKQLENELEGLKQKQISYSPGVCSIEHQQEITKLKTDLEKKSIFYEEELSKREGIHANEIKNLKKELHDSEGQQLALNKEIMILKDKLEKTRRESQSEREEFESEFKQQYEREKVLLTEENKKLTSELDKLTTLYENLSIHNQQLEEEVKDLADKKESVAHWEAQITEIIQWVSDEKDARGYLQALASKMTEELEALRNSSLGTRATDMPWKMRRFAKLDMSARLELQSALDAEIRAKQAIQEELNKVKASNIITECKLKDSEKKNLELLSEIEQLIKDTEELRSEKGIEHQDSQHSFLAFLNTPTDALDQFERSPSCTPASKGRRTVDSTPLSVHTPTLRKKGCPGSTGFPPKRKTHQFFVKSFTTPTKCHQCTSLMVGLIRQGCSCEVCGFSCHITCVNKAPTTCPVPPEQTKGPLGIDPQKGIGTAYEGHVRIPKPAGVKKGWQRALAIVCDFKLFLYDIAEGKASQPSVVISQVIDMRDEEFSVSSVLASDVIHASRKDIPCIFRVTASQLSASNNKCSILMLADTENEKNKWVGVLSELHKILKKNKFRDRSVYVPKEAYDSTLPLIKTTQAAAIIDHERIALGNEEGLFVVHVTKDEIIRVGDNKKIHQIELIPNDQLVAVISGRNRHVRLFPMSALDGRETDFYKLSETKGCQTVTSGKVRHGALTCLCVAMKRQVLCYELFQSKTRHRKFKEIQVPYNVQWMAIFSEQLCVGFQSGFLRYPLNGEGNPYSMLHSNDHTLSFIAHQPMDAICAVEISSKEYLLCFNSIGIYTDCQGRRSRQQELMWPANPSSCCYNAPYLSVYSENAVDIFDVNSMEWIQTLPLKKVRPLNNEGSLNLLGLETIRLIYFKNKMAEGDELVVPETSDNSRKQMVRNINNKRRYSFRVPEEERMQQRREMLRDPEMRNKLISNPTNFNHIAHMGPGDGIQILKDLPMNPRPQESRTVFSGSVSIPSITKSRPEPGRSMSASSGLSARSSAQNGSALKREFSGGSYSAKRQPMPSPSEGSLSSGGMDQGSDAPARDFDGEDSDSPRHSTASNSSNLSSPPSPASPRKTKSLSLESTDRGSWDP

Molecule `O=C(NOC[C@H](O)CO)c1ccc(F)c(F)c1Nc1ccc(I)cc1F` returned a % of control in experiment [1] of 100%.

Molecule `Cc1cc([C@@H](C)Nc2ccccc2C(=O)O)c2nc(N3CCOCC3)cc(=O)n2c1` [AZD-6482] registered a % of control in experiment [2] of 100%.

Consider `CC[C@@H]1[C@H](F)C(=O)N[C@@H]1COc1nccc2cc(C(N)=O)c(OC)cc12` [ZIMLOVISERTIB], for which the % of inhibition on Focal adhesion kinase 1 was found to be 5.5%.

As to `CN(C)CCOc1ccc(-c2nc(-c3ccncc3)c(-c3ccc4c(c3)CC/C4=N\O)[nH]2)cc1`, the % of control in experiment [3] was determined as 100%.

The record behind these values is ChEMBL document CHEMBL5465560, “Selectivity Literature for EUbOPEN Chemogenomic Library” (2024).
